Assay results from patent publication US7012042B1, “Methods and products to protect against root intrusion and plant and root growth” (Growguard, LLC, Inc., priority 2002, dated 2006).

Assays:
[1] = Solubility of Trifluralin in methacrylate plasticizer/monomers; type: physicochemical; details: in ethyl methacrylate and lauryl methacrylate
Experimental: A novel solution involving the polymerization of the plasticizer that remains within the fiber (FIG. 8) has been developed. Thus, a plasticizer is chosen that also is a monomer. It was determined that Trifluralin is quite soluble in ethyl methacrylate and lauryl methacrylate. […] Thus, technical feasibility is evident up to this point in the process.

plant root = details: cited from earlier work

## CCCN(CCC)c1c([N+](=O)[O-])cc(C(F)(F)F)cc1[N+](=O)[O-] [Trifluralin]
[1]
  solubility: quite soluble
Plant root; 95% of the plants tested, prior efforts
  concentration highly effective in preventing root elongation: 2–5 ppm
Plant root; a few of the plants tested, prior efforts
  concentration required to inhibit root growth: 10 ppm
Plant root; in gels and water-saturated soils adjacent to a pipe leakage area
  concentration sufficient to inhibit root growth: 5–10 ppm
